In brackets after ≈: the same amount, converted by molar mass. Several values for one entry are separate records, joined by “and”; a condition that tells them apart may be missing. Identical values can stand only once. Like-named read-outs stand apart in the source and are kept apart here.
Tests used:
[1] = molecular target: T1, MtNDH-2 (Mycobacterium tuberculosis, UniProt P95160); assay: biochemical; design: species or system M. tuberculosis; conditions: MtNDH-2 IC50
[2] = molecular target: MsNDH-2 (Mycolicibacterium smegmatis, UniProt A0QYD6); assay: Inhibition of MsNDH-2 (NADH oxidation with menadione, absorbance at 340 nm); type: biochemical, M. smegmatis
Sequence of MsNDH-2 (A0QYD6 1-457): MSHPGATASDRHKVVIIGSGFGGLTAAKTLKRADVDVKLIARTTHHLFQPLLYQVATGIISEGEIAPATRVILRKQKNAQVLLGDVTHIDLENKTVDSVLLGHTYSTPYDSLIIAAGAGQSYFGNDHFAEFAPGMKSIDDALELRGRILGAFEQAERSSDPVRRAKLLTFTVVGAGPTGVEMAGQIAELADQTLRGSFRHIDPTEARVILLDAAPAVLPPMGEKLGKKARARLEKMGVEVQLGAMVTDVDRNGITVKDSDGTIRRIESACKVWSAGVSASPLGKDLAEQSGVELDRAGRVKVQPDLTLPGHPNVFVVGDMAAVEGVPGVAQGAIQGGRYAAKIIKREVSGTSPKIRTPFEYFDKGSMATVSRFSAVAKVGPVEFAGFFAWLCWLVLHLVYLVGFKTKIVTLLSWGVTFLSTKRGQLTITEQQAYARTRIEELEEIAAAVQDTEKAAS

[3] = tested on: E. coli (ATCC 25922, wild-type); assay: MIC on ESKAPE pathogens, E. coli wild-type; type: cell-based; conditions: Escherichia coli
[4] = tested on: E. coli (ΔtolC efflux-defective mutant, isogenic to ATCC 25922); assay: microbe, parasite or virus in culture; type: cell-based; conditions: Escherichia coli, ATCC25922, read-out: MIC Ec ΔtolC
[5] = tested on: E. coli (D22, lpxC mutant, drug-hypersensitive); assay: microbe, parasite or virus in culture; type: cell-based; conditions: Escherichia coli, read-out: MIC Ec D22
[6] = tested on: P. aeruginosa (PAO1, wild-type); assay: MIC on ESKAPE pathogens, P. aeruginosa wild-type; type: cell-based; conditions: Pseudomonas aeruginosa
[7] = tested on: P. aeruginosa (PAO750 efflux-defective mutant, isogenic to PAO1); assay: microbe, parasite or virus in culture; type: cell-based; conditions: Pseudomonas aeruginosa, PAO1, read-out: MIC Pa efflux
[8] = tested on: A. baumannii (ATCC 19606, wild-type); assay: MIC on ESKAPE pathogens, A. baumannii; type: cell-based; conditions: Acinetobacter baumannii, ATCC19606; A. baumannii ATCC 19606, wild-type; read-out: MIC Ab WT
[9] = tested on: S. aureus (ATCC 29213, wild-type); assay: MIC on ESKAPE pathogens, S. aureus; type: cell-based; conditions: Staphylococcus aureus, ATCC29213
[10] = tested on: M. tuberculosis strain H37Rv (ATCC 25618); assay: MIC on M. tuberculosis by resazurin reduction microplate assay (REMA); type: cell-based; conditions: Mycobacterium tuberculosis, M. tuberculosis H37Rv, read-out: MIC Mtb
[11] = Cytotoxicity on the MRC-5 cell line (resazurin); type: cell-based; conditions: human, MRC-5SV2 cells, MRC-5SV2, 3 days
Description: MRC-5SV2 cells were cultured in Earl’s MEM + 5% FCSi. Assays were performed in 96-well microtiter plates, each well containing about 10^4 cells/well. After 3 days of incubation with or without compounds, cell viability was assessed fluorimetrically after the addition of resazurin (λex 550 nm, λem 590 nm). The results were expressed as % reduction in cell growth/viability compared to untreated control wells and CC50 was determined. Testing/retesting strategy was as described above for HepG2 cells.

[12] = tested on: P. aeruginosa PAO1 resistant mutants; assay: microbe, parasite or virus in culture; type: cell-based
[13] = tested on: K. pneumonia (ATCC 13833, wild-type); assay: MIC on ESKAPE pathogens, K. pneumoniae
[14] = tested on: Trypanosoma cruzi Tulahuen LacZ (clone C4); assay: Trypanosoma cruzi growth on MRC-5 cells (CPRG); conditions: MRC5, 168 h, read-out: IC50 Trypanosoma cruzi
Description: In vitro biology: Minimum inhibitory concentration (MIC) assays on parasites Synthesized compounds were tested against different parasite cell lines (T. brucei, T. cruzi, and P. falciparum K1) for the MIC determination.
Trypanosoma cruzi cells were maintained on MRC-5 human lung fibroblast cells. The assay was performed with 5% CO2 at 37 °C in a 96-well microtiter plate. Each well contains 10 µl compound dilution and 190 µl parasite/MRC-5 cell inoculum (10:1 parasites : cells). Parasite burdens were evaluated with addition of substrate CPRG (50 µl/well stock solution with 15.2mg CPRG + 250 µl Nonidet in 100 ml PBS). After 4h incubation, the absorbance change was measured spectrophotometrically at 540 nm at 37 °C. The res ults were presented as % growth, compared with non-infected cells (0% growth) and untreated-infected controls (100 % growth) after 7-day incubation, and the

[15] = molecular target: T1, MtNDH-2; design: method as in PMID 24900541; conditions: reported earlier; cited from earlier work
[16] = tested on: Trypanosoma brucei brucei Squib 427; assay: Trypanosoma brucei growth (resazurin); type: cell-based; conditions: reference compound
Description: page 46: of PES (phenazine ethosulfate, 0.1 mg/ml) and NBT (Nitro Blue Tetrazolium Grade III, 2 mg/ml) in a new plate. The absorbance change was measured at 655nm. The results were shown as % reduction in parasitemia, compared to control wells with no treatment. […] A compound […] secondary screening. 3. Trypanosoma brucei sample has 7*104 parasites/ml in the suspension. Cultured for 3 days, the growth of the cells was assessed fluorimetrically with the addition of resazurin in a microtiter plate. The fluorescence intensity was measured after 24h at 37 °C with the excitation wavelength at 550nm and the emission wavelength at 590nm. The results were presented as % reduction in parasite growth, compared to reference wells with no treatment, followed by IC50 calculation. Suramine was used as the reference compound […] subsequently evaluated in a secondary assay, with broader concentration range, additional references, and other species. IC50 values are shown in Table S1, followed by semi-quantitative activity scores, and indications for specificity. […]

[17] = 95% confidence interval in parentheses, 50 nM enzyme, 50 μM menadione, >100: no significant inhibition at 100 μM
[18] = same IC50 given in μg/mL to assist comparisons with MICs

T1 sequence (P95160 2-463, added parts left off): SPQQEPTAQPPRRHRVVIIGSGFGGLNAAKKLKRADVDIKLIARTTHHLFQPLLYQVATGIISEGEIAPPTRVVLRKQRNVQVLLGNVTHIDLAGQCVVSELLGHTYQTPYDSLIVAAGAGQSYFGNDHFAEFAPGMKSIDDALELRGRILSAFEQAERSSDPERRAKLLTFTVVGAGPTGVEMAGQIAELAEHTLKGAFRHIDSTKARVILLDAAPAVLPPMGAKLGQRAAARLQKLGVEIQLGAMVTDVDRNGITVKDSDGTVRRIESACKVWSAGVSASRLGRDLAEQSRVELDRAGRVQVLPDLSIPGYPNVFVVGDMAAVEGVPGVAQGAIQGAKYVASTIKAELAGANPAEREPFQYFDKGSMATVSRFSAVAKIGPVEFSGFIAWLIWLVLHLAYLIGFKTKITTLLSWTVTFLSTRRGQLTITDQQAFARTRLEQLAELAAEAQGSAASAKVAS

SMILES | IC50 [1] | IC50 [2, 17] [nM] | IC50 [2, 18] [nM] | MIC [4] [µg/mL] | MIC [5] [µg/mL] | MIC [7] [µg/mL] | MIC [8] [µg/mL] | MIC [9] [µg/mL] | MIC [10] [µg/mL] | IC50 at 3 days ([11]; resazurin) [nM] | IC50 at 3 days ([11]; value in parentheses) [µg/mL] | MIC Kp WT [13] [µg/mL] | other results
Nc1nc(Nc2ccc3nc(-c4ccc(F)cc4)cc(N)c3c2)cc(N2CCC(N)CC2)n1 [Compound 8j, N^6-(2-Amino-6-(4-aminopiperidin-1-yl)pyrimidin-4-yl)-2-(4-fluorophenyl)quinoline-4,6-diamine] | 6100 nM and 6070 nM | 21000 | 21400 | 16 (≈ 36 µM) | 8 (≈ 18 µM) | 8 (≈ 18 µM) | 128 (≈ 288 µM) | 32 (≈ 72 µM) | 44.5 (≈ 100 µM) | 22000 | 9.8 | >128 | MIC ([3]; ATCC25922, E. coli ATCC 25922, wild-type, read-out: MIC Ec WT): 64 µg/mL (≈ 144 µM); MIC ([6]; PAO1, P. aeruginosa PAO1, wild-type, read-out: MIC Pa WT): 4 µg/mL (≈ 9 µM); MIC ([12]; Pseudomonas aeruginosa, PAO1, read-out: MIC mutant): 32 µg/mL (≈ 72 µM); fold increase of MIC ([12]; mutant CH5071 vs parent P. aeruginosa PAO1): 8; MIC mutant ([12]; mutant CH5072 raised against 8j, phoQ Leu158fs): 32 µg/mL (≈ 72 µM); fold increase of MIC ([12]; mutant CH5072 vs parent P. aeruginosa PAO1): 8; MIC mutant ([12]; mutant CH5073 raised against 8j, basS (pmrB) Ser257Asn): 32 µg/mL (≈ 72 µM); fold increase of MIC ([12]; mutant CH5073 vs parent P. aeruginosa PAO1): 8; MIC mutant ([12]; mutant CH5075 raised against 8j, basS (pmrB) Ala29Glu): 32 µg/mL (≈ 72 µM); fold increase of MIC ([12]; mutant CH5075 vs parent P. aeruginosa PAO1): 8; MIC mutant ([12]; mutant CH5077 raised against 8j, phoQ Ser151 stop codon): 32 µg/mL (≈ 72 µM); fold increase of MIC ([12]; mutant CH5077 vs parent P. aeruginosa PAO1): 8
O=C(Cn1ccnc1[N+](=O)[O-])NCc1ccccc1 [Benznidazole] | – | – | – | – | – | – | – | – | – | – | – | – | IC50 [14]: 1700 nM
Cc1cccc(-c2cc(Nc3ccc4nc(-c5ccc(F)cc5)cc(N)c4c3)nc(N)n2)c1 [Compound 1, N^6-(2-Amino-6-m-tolylpyrimidin-4-yl)-2-(4-fluorophenyl)quinoline-4,6-diamine, reference compound] | 26 nM and 22.9 nM | 1600 | 1600 | 8 (≈ 18.3 µM) | 4 (≈ 9.16 µM) | 128 (≈ 293 µM) | 64 (≈ 147 µM) | 1 (≈ 2.29 µM) | 2.6 (≈ 5.96 µM) | 1300 | 0.6 | >128 | MIC ([3]; ATCC25922, read-out: MIC Ec WT): > 128 µg/mL; MIC ([6]; PAO1, read-out: MIC Pa WT): > 128 µg/mL; IC50 [15]: 96 nM
Cc1ccc(C(=O)Nc2ccc(S(=O)(=O)O)c3cc(S(=O)(=O)O)cc(S(=O)(=O)O)c23)cc1NC(=O)c1cccc(NC(=O)Nc2cccc(C(=O)Nc3cc(C(=O)Nc4ccc(S(=O)(=O)O)c5cc(S(=O)(=O)O)cc(S(=O)(=O)O)c45)ccc3C)c2)c1 [Suramine] | – | – | – | – | – | – | – | – | – | – | – | – | IC50 [16]: 40 nM

From PMC8922281, “Synthesis and In Vitro Biological Evaluation of Quinolinyl Pyrimidines Targeting Type II NADH-Dehydrogenase (NDH-2)” (ACS Infectious Diseases, 2022)
